Experimental data from patent US20050271588A1, “Liposome targeting of matrix metalloproteinase inhibitors” (priority 2001, published 2005).
Positions of bridges follow the written chain, without caps; N, C: chain ends. No end group written: not given here.

What was measured:
MMP-2 = biological target: T1, MMP-2 (Homo sapiens, UniProt P08253); assay: Casein zymography, inhibition of MMP-2; assay type: biochemical; settings: 85 μM peptide
T1 construct: purchased Boehringer Mannheim GmbH (Germany)
T1 sequence (P08253 110-660): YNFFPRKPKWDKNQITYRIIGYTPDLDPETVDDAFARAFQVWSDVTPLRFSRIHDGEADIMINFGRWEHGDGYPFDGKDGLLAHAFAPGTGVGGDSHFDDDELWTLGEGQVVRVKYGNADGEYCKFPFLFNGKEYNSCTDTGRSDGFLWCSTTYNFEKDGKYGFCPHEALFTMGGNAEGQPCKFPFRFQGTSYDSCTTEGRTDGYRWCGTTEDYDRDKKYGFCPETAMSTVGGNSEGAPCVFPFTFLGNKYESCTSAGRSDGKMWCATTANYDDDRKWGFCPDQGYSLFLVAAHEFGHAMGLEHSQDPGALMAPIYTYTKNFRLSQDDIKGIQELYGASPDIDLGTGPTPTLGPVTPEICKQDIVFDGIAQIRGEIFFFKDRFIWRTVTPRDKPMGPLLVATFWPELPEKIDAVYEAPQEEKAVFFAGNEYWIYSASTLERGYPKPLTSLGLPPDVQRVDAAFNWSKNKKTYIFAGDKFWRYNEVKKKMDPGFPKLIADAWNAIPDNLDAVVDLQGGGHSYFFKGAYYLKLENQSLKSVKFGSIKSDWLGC
Method: Assay for gelatinases. Inhibition of MMP-9 and MMP-2 by the different synthetic peptides was measured using casein zymography (Halinen et al., 1996). MMP-9 was purified as described (Sorsa et al., 1997). Subsequently, MMP-2 (2.5 μg) or MMP-9 (2.5 μg) was run on a 10% SDS-PAGE containing two mg/ml casein. The gel was first washed in Triton X-100 containing buffer to remove SDS, and it was cut into five slices which were immersed into peptide (CTT, CLP, CWL or STT) containing solutions (85 μM). After incubation for 48 hrs at 37° C., the gels were stained with Coomassie blue, scanned, and the digested areas quantitated using image analysis (Global Lab Image 3.2, Data Translation Inc. and Acuity Imaging Inc., Marlboro, Mass., USA).

[1] = Penetration of peptides into lipid monolayers (surface pressure); assay type: physicochemical; settings: eggPC monolayer, peptide 200 μM
Method: Interaction of peptides with lipid monolayers. Penetration of peptides into mono-molecular lipid films was measured using magnetically stirred circular wells (subphase volume 400 μl). Surface pressure (π) was monitored with a Wilhelmy wire attached to a microbalance (μ TroughS, Kibron Inc., Helsinki, Finland) connected to a Pentium PC. Lipids were spread on the air-buffer (PBS, pH 7) interface in chloroform (approx. one mg/ml) to different initial surface pressures (π0) and were allowed to equilibrate for 15 min before the addition of the indicated peptides (4 μ1,10 mg/ml in H2O and CWL in DMSO) into the subphase. The increment in π from the initial surface pressures (π0) after the addition of peptide was complete in approximately 20 min and the difference between π0 and the value observed after binding of the peptide into the film was taken as Δπ. All measurements were performed at ambient temperature (˜+24° C.). The data are represented as Δπ vs. […] (Brockman, 1999).

[2] = Assay for lipid mixing (liposome fusion, NBD-PE/DPPRho); assay type: physicochemical; settings: within 15 min
Method: The extent of exposure of Trp to the aqueous phase was studied using I— as a collisional quencher (Lakowicz, 1999). The extent of quenching was calculated by using the equation: F0/F=1+k[Q]=1+kqτ0[Q] where F0 and F are Trp fluorescence intensities at 345 nm in the absence and presence of the quencher, Q, τ0 is Trp fluorescence lifetime in the absence of the quencher, k is the Stern-Volmer constant (obtained from the slope of the linear fit of the data). Fluorescence of Trp in CTT (5 μM) and its quenching were measured in the absence and presence of POPC/POPE (80:20, mol/mol) LUVs (final lipid concentration of 0.5 mM). The results were corrected for background caused by PBS and liposomes. Assay for lipid mixing. The ability of the CTT, CLP, STT, and CWL peptides to induce liposome fusion was assessed by measuring lipid mixing, as described earlier (Struck et al., 1981). In brief, NBD-PE (X=0.01) and DPPRho (X=0.01) were incorporated into liposomes (POPC/POPE, 78/20, mol/mol). Due to the spectral overlap of NBD-PE (donor) emission and DPPRho (acceptor) absorption resonance energy transfer between these dyes is highly efficient. As liposomes containing NBD-PE and DPPRho are mixed with non-labeled liposomes, fusion is observed as an increase in the emission intensity of NBD-PE due to the dilution of probes. Excitation and emission wavelengths for NBD-PE at 430 nm and 530 nm were used. All fluorescence measurements were done at 37° C.

U937 cells [3] = assay: Uptake of liposome-encapsulated rhodamine B by U937 cells; assay type: cell-based; settings: U937, fluorescence plate-reader
Method: In another series of experiments the water-soluble fluorescent marker rhodamine B was encapsulated into liposomes and its uptake by cells was measured. Samples for rhodamine B uptake were prepared by mixing 60 μl of POPC/POPE (80/20, mol/mol, one mM) liposomes containing 10 μM rhodamine B to 300 μl of DMEM medium supplemented with 10% fetal bovine serum, Glutamax I, penicillin 100 U/ml and streptomycin 0.1 mg/ml. Peptides were then added to obtain a final concentration of […]. Ten μl (10^5 cells) of medium containing the indicated cells were combined with the LUVs. After an incubation for 15 min at 37° C. or +4° C. liposomes not bound to the cells were removed from 96-well plates by rinsing three times with cold PBS. The +4° C. temperature served as a control for non-endocytotic liposome uptake by cells (Oess and Hildt, 2000). The relative amount of rhodamine B associated with the cells was determined using microplate reader with excitation at 535 nm and emission at 595 nm.
(§1) We also preincubated cells with phorbol ester (TPA) (50 nM). Preincubation times varied from 15 to 75 min. Treatment of cells by phorbol ester (TPA) increases both expression and secretion of MMP-9 (Toth et al., 1997). Results are presented as RFI=I/I0, where RFI is relative fluorescence intensity, I0 is the emission intensity for the control, 2 μM rhodamine B in LUVs without the peptides, and I is the rhodamine emission for the peptide-liposome complexes taken up by the cells. […] M-17 inhibits the binding of MMP-9 to the substrate and this inhibition is expected to be concentration dependent. It is not known if rabbit polyclonal antibody blocks human MMP-2 (Murphy et al., 1994). Final concentrations of the indicated peptide, […] were 85 μM, 0.2 mM, 20 μg/ml, and 0.4 μM, respectively.
Cell cultures and fluorescence microscopy. U937 (ECACC 85011440), HT 1080 (ECACC 85111505), and CHO (ECACC 85050302) cells were cultured in RPMI or DMEM medium supplemented with 10% fetal bovine serum, Glutamax I, penicillin (100 U/ml), and streptomycin (0.1 mg/ml). Uptake of rhodamine B containing liposomes by the cultured cells was verified by fluorescence microscopy. An inverted fluorescence microscope (Zeiss IM 35) equipped with Nikon extra long working distance objectives (20×) and (40×) were used. Samples were prepared as described for the rhodamine uptake assay, with slight modifications. Accordingly, instead of washing, U937, HT 1080, and CHO cells with the rhodamine-containing liposomes and in cell culture medium were transferred into Nunclon 48 plate wells. Excitation and emission wavelengths were selected by suitable bandpass filters (Melles-Griot) transmitting in the range 535 nm and >600 nm, respectively. Fluorescence images were viewed with a Peltier-cooled digital camera (C4742-95, Hamamatsu, Japan) connected to a computer and operated by software (Hipic 5.0) provided by the instrument manufacturer.

U937 cells [4] = assay: Cell killing by Adriamycin-containing liposomes, EthD-1 viability assay; assay type: cell-based; settings: U937, 24 h, peptide 85 μM, Adriamycin 0.4 μM
Method: Viability assays. Peptide-liposome complexes with the encapsulated adriamycin were made as described above, yielding final concentrations of peptide, lipid, and adriamycin of 85 μM, 0.2 mM, and 0.4 μM, respectively, and were subsequently added to a ten μl (10^5 cells) sample of U937 cells. For the detection of dead cells EthD-1 was used. This fluorophore is membrane-impermeable and emits fluorescence only when bound to DNA (Papadopoulos et al., 1994). Accordingly, EthD-1 readily enters dead cells and binds to their DNA, its fluorescence intensity correlating to the amount of dead cells. EthD-1 emission was measured using microplate reader with excitation at 495 nm and emission at 635 nm. Student's t-test was used to assess statistical significance.

MMP-9 = biological target: T2, MMP-9 (Homo sapiens, UniProt P14780); assay: Gelatinase assay with fluorogenic peptide substrate; assay type: biochemical; settings: 100 μM EDTA, MMP-9 5 nM
T2 construct: made in house
Method: The activity of MMP-9 was measured also using the fluorogenic peptide substrate MCA-Pro-Leu-Ala-Nva-Dpa-Ala-Arg (Calbiochem, San Diego, Calif., USA). More specifically, 50 ng of MMP-9 was preincubated in PBS for 30 min at RT in the absence or presence of CTT or its liposome complex. Subsequently, the fluorogenic substrate was added to a final concentration of 0.1 mM and the incubation was continued at 37° C. for 15 min, whereafter fluorescence intensities were measured with exitation at 340 nm and emission at 390 nm in a microtiter plate reader.

HT1080 cells = assay: Blocking of CTT-liposome uptake by antibodies and proteinase inhibitors; assay type: cell-based, human; settings: TIMP-2 10 μg/ml, Marimastat 50 μM, EDTA 500 μM, aprotinin 1 μg/ml
Method: We further investigated if cell surface-bound gelatinases were the receptors for the CTT-containing liposomes. Cells were washed to remove soluble forms of gelatinases, and then preincubated for 30 min with MMP inhibitors or specific antibodies before the addition of liposomes.
We also preincubated cells with phorbol ester (TPA) (50 nM). Preincubation times varied from 15 to 75 min. Treatment of cells by phorbol ester (TPA) increases both expression and secretion of MMP-9 (Toth et al., 1997). […] M-17 inhibits the binding of MMP-9 to the substrate and this inhibition is expected to be concentration dependent. It is not known if rabbit polyclonal antibody blocks human MMP-2 (Murphy et al., 1994). Final concentrations of the indicated peptide, Adriamycin, antibodies and liposomes were 85 μM, 0.2 mM, 20 μg/ml, and 0.4 μM, respectively.

cells = assay: Effect of phorbol ester (TPA) preincubation on CTT-liposome uptake; assay type: cell-based; settings: TPA 50 nM
Method: as §1

T2 sequence (P14780 94-707): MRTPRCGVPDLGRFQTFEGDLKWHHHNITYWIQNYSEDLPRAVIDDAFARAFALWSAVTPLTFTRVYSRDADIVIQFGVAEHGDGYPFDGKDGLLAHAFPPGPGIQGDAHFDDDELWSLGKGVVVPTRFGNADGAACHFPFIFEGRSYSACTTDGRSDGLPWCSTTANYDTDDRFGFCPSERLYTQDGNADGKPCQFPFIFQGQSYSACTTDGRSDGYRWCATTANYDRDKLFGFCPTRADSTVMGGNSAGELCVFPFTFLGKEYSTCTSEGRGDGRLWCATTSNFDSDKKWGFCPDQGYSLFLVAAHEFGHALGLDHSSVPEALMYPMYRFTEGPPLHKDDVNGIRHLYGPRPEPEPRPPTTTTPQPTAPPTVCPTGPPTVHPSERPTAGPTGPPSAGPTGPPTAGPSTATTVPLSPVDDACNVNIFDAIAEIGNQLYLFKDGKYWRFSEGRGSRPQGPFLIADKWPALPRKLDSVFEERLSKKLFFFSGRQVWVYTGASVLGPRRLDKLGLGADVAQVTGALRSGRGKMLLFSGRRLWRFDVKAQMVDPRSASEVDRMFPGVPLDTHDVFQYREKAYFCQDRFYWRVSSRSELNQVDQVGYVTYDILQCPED

STTHWGFTLS
Inhibition of MMP-2 activity (MMP-2): approx. 30%
Initial monolayer packing pressure above which membrane penetration was abolished [1]: 31 mN/m
Lipid mixing / vesicle fusion (NBD-PE emission) [2]: lack of lipid mixing
Enhancement of uptake of liposome-encapsulated rhodamine vs liposomes lacking peptide (U937 cells [3]): Only minor effect
Increase in killing of cells vs Adriamycin liposomes without peptide (U937 cells [4]): 1.7 fold

O=C(O)CN(CCN(CC(=O)O)CC(=O)O)CC(=O)O [EDTA, reference compound]
Inhibition of MMP-9 (MMP-9): Complete inhibition

aprotinin
Inhibition of liposome transfer into cells (HT1080 cells): no significant inhibitory effect

CCCCCCCCCCCCCC(=O)O[C@@H]1[C@@H](C)[C@@]2(O)[C@@H](C=C(CO)C[C@]3(O)C(=O)C(C)=C[C@@H]23)[C@H]2C(C)(C)[C@]12OC(C)=O [TPA]
Effect on uptake of CTT-liposomes (cells; prolonged incubation (75 min)): inhibited
Effect on uptake of CTT-liposomes (cells; short exposure time (15 min)): increased

CLPGHWGFPSC (cysteine pairing not given here) [CTT homolog, part of EGF-7 domain in human laminin β-1 chain]
Initial monolayer packing pressure above which membrane penetration was abolished [1]: 33 mN/m
Lipid mixing / vesicle fusion (NBD-PE emission) [2]: lack of lipid mixing
Enhancement of uptake of liposome-encapsulated rhodamine vs liposomes lacking peptide (U937 cells [3]): Only minor effect
Increase in killing of cells vs Adriamycin liposomes without peptide (U937 cells [4]): 1.3 fold

Cys-Trp-Leu-Thr-Phe-Thr-His-Gly-Thr-Cys (CWLTFTHGTC; disulfide 1-10) [scrambled cyclic peptide, reference compound]
Enhancement of uptake of liposome-encapsulated rhodamine vs liposomes lacking peptide (U937 cells [3]): inefficient
Increase in killing of cells vs Adriamycin liposomes without peptide (U937 cells [4]): not

CNC(=O)[C@@H](NC(=O)[C@H](CC(C)C)[C@H](O)C(=O)NO)C(C)(C)C [Marimastat]
Inhibition of liposome transfer into cells (HT1080 cells): approx. 50%
